# Patent publication EP1075186B1, “METHOD OF HSV PROPHYLAXIS” (The Children's Hospital Research Foundation, priority 1998, dated 1999)
# Several values for one entry are separate records, joined by “and”; a condition that tells them apart may be missing. Equal entries are not always repeated.
# Columns and labels:
# [1] = tested on: HSV-2 strain 186; assay: Mouse genital HSV-2 model, intravaginal prophylaxis; format: in vivo, Swiss Webster mice; conditions: Table 21; for Virus Isolated / Dead: 2% intravaginal, one treatment just prior to HSV-2 challenge, 15 mice; for Virus Isolated: number of animals; for Dead: observed to day 21 PI
# Description: Sixty female Swiss Webster mice pretreated with medroxyprogesterone acetate were randomized to four groups of 15 to receive either Saline (control), 2 % Acyclovir, 2 % Compound 96, or 0.5% Compound 96. Animals were anesthetized by intraperitoneal injection of sodium pentabarbital and then administered 15 µl of control or test compound intravaginally in one treatment. They were then immediately challenged by intravaginal instillation with 15 µl of a suspension containing 10^4 plaque forming units HSV-2 strain 186. Vaginal swabs were collected on days 1 and 2 post-inoculation (PI) to assess the effect of treatment on vaginal replication in the genital tract. In addition, all animals were examined daily until day 21 PI for mortality and signs of infection (erythema, hair loss and hind limb paralysis).
# [2] = tested on: HSV-1; assay: Plaque reduction assay, HSV-1; format: cell-based; conditions: Human alphaherpesvirus 1; Table 19
# Description: Two days prior to use, HFF cells are plated into six well plates and incubated at 37°C with 5% CO2 and 90% humidity. On the date of assay, the drug is made up at twice the desired concentration in 2X MEM and then serially diluted 1:5 in 2X MEM using six concentrations of drug. The initial starting concentration isusually 200 µg/ml down to 0.06 µg/ml. The virus to be used is diluted in MEM containing 10% FBS to a desired concentration which will give 20 - 30 plaques per well. […] The plates are then incubated for one hour with shaking every fifteen minutes. After the incubation period, an equal amount of 1% agarose was added to an equal volume of each drug dilution. This will give final drug concentrations beginning with 100 µg/ml and ending with 0.03 µg/ml and a final agarose overlay concentration of 0.5%. […] At the end of 4-6 hr incubation period, the stain is aspirated, and plaques counted using a stereomicroscope at 10X magnification. The procedure for the liquid overlay plaque assay is similar to that using the agarose overlay. The procedure for adding the virus is the same as for the regular plaque assay. The drugs are made up in a concentration to be used in MEM with 2% FBS. […] For CMV and VZV, no antibody in the overlay is utilized. For the CMV assay, additional medium without new drug is added on day six and allowed to incubate for a total of 11 days. […]
# [3] = tested on: EBV; assay: EBV screening test (IMN); format: cell-based; conditions: human gammaherpesvirus 4, Table 19
# [4] = tested on: HSV-1; assay: Cytopathic effect inhibition assay, HSV-1; format: cell-based; conditions: Human alphaherpesvirus 1; Table 19; read-out: EC50 HSV-1 CPE
# Description: (§1) Newborn human foreskin were obtained as soon as possible after circumcisions were performed and placed in minimal essential medium (MEM) containing vacomycin, fungizone, penicillin, and gentamycin, at the usual concentrations, for four hours. The medium was then removed, the foreskin minced into small pieces and washed repeatedly until red cells were no longer present. The tissue was then trypsinized using trypsin at 0.25% with continuous stirring for 15 minutes at 37°C in a CO2 incubator. At the end of each 15 minute period, the tissue was allowed to settle to the bottom of the flask. The supernatant containing cells was poured through sterile cheesecloth into a flask containing MEM and 10% fetal bovine serum. The flask containing the medium was kept on ice through out the trypsinizing procedure. After each addition of cells, the cheesecloth was washed with a small amount of MEM containing serum. Fresh trypsin was added each time to the foreskin pieces and the procedure repeated until no more cells became available. The cell containing medium was then centrifuged at 1000 RPM at 4°C for ten minutes. The supernatant liquid was discarded and the cells resuspended in a small amount of MEM with 10% FBS. The cells were then placed in an appropriate number of 25 cm^2 tissue culture flasks. As cells became confluent and needed trypsinization, they were gradually expanded into larger flasks. […]
# [5] = tested on: HSV-2; assay: Cytopathic effect inhibition assay, HSV-2; format: cell-based; conditions: Human alphaherpesvirus 2; Table 19; read-out: EC50 HSV-2 CPE
# Description: as §1
# [6] = tested on: VZV; assay: Plaque reduction assay, VZV; format: cell-based; set-up: EC50 VZV Plaque: unit not given beside the values
# Description: Two days prior to use, HFF cells are plated into six well plates and incubated at 37°C with 5% CO2 and 90% humidity. On the date of assay, the drug is made up at twice the desired concentration in 2X MEM and then serially diluted 1:5 in 2X MEM using six concentrations of drug. The initial starting concentration isusually 200 µg/ml down to 0.06 µg/ml. The virus to be used is diluted in MEM containing 10% FBS to a desired concentration which will give 20 - 30 plaques per well. […] The plates are then incubated for one hour with shaking every fifteen minutes. After the incubation period, an equal amount of 1% agarose was added to an equal volume of each drug dilution. This will give final drug concentrations beginning with 100 µg/ml and ending with 0.03 µg/ml and a final agarose overlay concentration of 0.5%. […] At the end of 4-6 hr incubation period, the stain is aspirated, and plaques counted using a stereomicroscope at 10X magnification. […] After addition of the drug, the plates are incubated for ten days. • 2. On days three and six an additional 1 ml overlay with equal amounts of 2X MEM and 1% agarose are added. The procedure for the liquid overlay plaque assay is similar to that using the agarose overlay. The procedure for adding the virus is the same as for the regular plaque assay. The drugs are made up in a concentration to be used in MEM with 2% FBS. […]
# [7] = tested on: HCMV; assay: Plaque reduction assay, HCMV; format: cell-based; conditions: Human betaherpesvirus 5, Table 19
# Description: Two days prior to use, HFF cells are plated into six well plates and incubated at 37°C with 5% CO2 and 90% humidity. On the date of assay, the drug is made up at twice the desired concentration in 2X MEM and then serially diluted 1:5 in 2X MEM using six concentrations of drug. The initial starting concentration isusually 200 µg/ml down to 0.06 µg/ml. The virus to be used is diluted in MEM containing 10% FBS to a desired concentration which will give 20 - 30 plaques per well. The media is then aspirated from the wells and 0.2 ml of virus is added to drug toxicity wells. The plates are then incubated for one hour with shaking every fifteen minutes. After the incubation period, an equal amount of 1% agarose was added to an equal volume of each drug dilution. This will give final drug concentrations beginning with 100 µg/ml and ending with 0.03 µg/ml and a final agarose overlay concentration of 0.5%. The drug agarose mixture is applied to each well in 2 ml volume and the plates then incubated for three days, after which the cells were stained with a 1.5 % solution of neutral red. At the end of 4-6 hr incubation period, the stain is aspirated, and plaques counted using a stereomicroscope at 10X magnification.
# The procedure is essentially the same as for HSV analysis with the following minor changes. […]
# [8] = tested on: HCMV; conditions: Table 19
# Description: as §1
# [9] = tested on: HFF cells; assay: Cell proliferation assay; format: cell-based, human; conditions: Table 20; RAPIDLY GROWING CELLS
# Description: On the day of the assay, drugs are diluted serially in MEM containing 10% FBS at increments of 1:5 covering a range from 100 μg/ml to 0.03 μg/ml. For drugs that have to be solubilized in DMSO, control wells […] MEM containing 10% DMSO. The media from the wells is then aspirated and 2 ml of each drug concentration is then added to each well. The cells are then incubated in a CO2 incubator at 37°C for 72 hours. At the end of this time, the media-drug solution is removed and the cells washed. […] The cell-media mixture is then pipetted up and down vigorously to break up the cell suspension and 0.2 ml of the mixture is added to 9.8 ml of Isoton III and counted using a Coulter Counter. Each sample is counted three times with three replicate wells per sample.
# [10] = 2%, mean log10 viral titers ± SEM, infected animals only
smiles,measurement,setting,value
Nc1nc2c(ncn2COCCO)c(=O)[nH]1 [Acyclovir],Virus Isolated,[1],12
same,Virus Isolated,[1]; listed as acyclovir,12/15
same,Dead,[1],12
same,Dead,[1]; listed as acyclovir,12/15
same,Vaginal Virus Titer Day 1,[1]; [10],1.96 ± 0.38 log10
same,Vaginal Virus Titer Day 2,[1]; [10],3.82 ± 0.38 log10
same,EC50,[2],0.2 µg/mL
same,EC50,[3],6 µg/mL
same,EC50,[4],0.2 µg/mL
same,EC50,[5],0.7 µg/mL
same,EC50,"[6]; Human alphaherpesvirus 3, Table 19",3.2 µg/mL
same,EC50 VZV Plaque,"[6]; Table 19, listed as ACV",4.4 and 3.1 and 3.0
Nc1nc2c(ncn2COC(CO)CO)c(=O)[nH]1 [DHPG],EC50,[7],0.7 µg/mL
same,EC50 HCMV CPE,[8],0.8 µg/mL
"O=c1[nH]c(=O)n([C@@H]2O[C@H](CO)[C@@H](O)[C@@H]2F)cc1I [FIAU, 2'-fluoro-5-iodo-arabinosyl-uracil]",TOXICITY ASSAYS - IC50 CELL PROLIFERATION,[9],3.3 MCG/ML and 8.4 MCG/ML
